Patent US5208032A, “Increasing the growth of turkeys using implant of 19-nortestosterone” (Rutgers, The State University of New Jersey, priority 1992, dated 1993)

Columns and labels:
[1] = Comparison of growth in treated female turkeys (Study II, Table IV); assay type: in vivo, Large White Nicholas turkeys; design: Abdominal Adipose: unit not given here; conditions: intact female; for Feed/Gain Ratio: 6 through 9 weeks; for Abdominal Adipose (%) / Feed/Gain Ratio (%) / Average Daily Gain (%) / Final 9-Week Body Weight (%) / Right Breast Muscle (%): change vs placebo; for Abdominal Adipose (%) / Feed/Gain Ratio (%): unsigned (decrease); for Average Daily Gain (%) / Final 9-Week Body Weight (%) / Right Breast Muscle (%): unsigned (increase)
Protocol: (§1) The same large white strain of turkey (received 1 day posthatching from Nicholas Breeding Farms, CA) was used in all studies. Poults were reared in deep litter brooder pens from 1 day posthatch and exposed to constant light until initiation of Studies I and III or through completion in the case of Study II. Studies I and III were conducted in an environmentally controlled room (photoperiod 12L:12D) with birds housed individually in wire-floored layer cages (space dimensions of 0.31 W×0.46 L×0.53 H meters per cage). Water and feed (Agway Game and Turkey Starter Crumbles) was available at all times. Turkeys were rank ordered by weight and distributed into treatment groups of equal mean body weights at the start of each Study (I, II and III).
(§2) Body weight determinations were made at the second and final week of each study, and several organs and tissues were excised and immediately weighed at the time of necropsy. Final shank-toe length, as an indicator of skeletal growth, was also determined. Birds were sacrificed via exanguination by laceration of the jugular vein. Specific details on the experimental design and conduct of each turkey study will follow.
At 6 weeks of age, seventy-seven female turkeys were rank ordered by weight and assigned to 7 treatment groups (11 birds per group) of equal mean weights. Within treatment groups, birds were further allotted to deep-litter pens (3.66×4.27 m) containing 4 subdivisions (0.91×1.22 m), with 3 birds per subdivision except for the last which contained 2. Individual treatment units (or pen subdivisions) were randomized (planned) among pens within the building, such that each pen contained 4 different treatment units (3 or 2 birds each). Feed consumption for each treatment unit was measured; thus, 4 replicates per treatment for feed consumption and feed/gain ratios (or feed efficiency) were calculated.
Treatments entailed the subcutaneous implantation (between the shoulders) of testosterone, 5-alpha-DHT or 19-nortestosterone as either a low (5-mg) or high (50-mg) dose pellet (Innovative Research of America, Rockville, Md.). Implants were specially constructed (steroid compressed into a methylcellulose/lactose pellet) to release respective steroids at a constant rate over a 21 day period (manufacturer statement). In support, a recent report by Satyaswaroop et al. (1984) on mice, found Innovative Research 17 beta-estradiol pellets to have excellent 21-day continued release characteristics (i.e., maintained blood levels of 20-30 ng/ml for 21 days). Group 1 controls were composed of females implanted with a 50-mg placebo pellet. The remaining 6 female treatment groups were as follows: Group 2, testosterone (5-mg); Group 3, 5-alpha-DHT (5-mg); Group 4, 19-nortestosterone (5-mg); Group 5, testosterone (50-mg); Group 6, 5-alpha-DHT (50-mg) and Group 7, 19-nortestosterone (50-mg). Excluding feed efficiency, data means for all other parameters were compared between treatments using individual birds as replicates (n=11). Data means for feed consumption and feed efficiency were compared between treatments using pen subdivisions (3 or 2 birds/subdivision) as replicates (n=8).
^a 5 or 50mg slow release pellets (Innovative Research) administered
subcutaneously at 6 weeks of age.
^b Data for Feed to Gain Ratio is computed for the period 6 through 9
weeks of age. Experimental units are floor pens (n = 4) of […]
values are means and SEM of the pen averages.

[2] = Comparison of growth on treated male turkeys (Study I, Table V); assay type: in vivo, Large White Nicholas turkeys; design: Abdominal Adipose: unit not given here; conditions: intact male; for Feed/Gain Ratio: n = 4; for Right Breast Muscle (%) / Feed Efficiency / Average Daily Gain (%) / Final 10-Week Body Weight (%) / Abdominal Adipose (%): change vs placebo; for Right Breast Muscle (%) / Average Daily Gain (%) / Final 10-Week Body Weight (%): unsigned (increase); for Feed Efficiency: column head prints (g), cells %; for Abdominal Adipose (%): unsigned (decrease)
Protocol: as §1, §2
At 7 weeks of age, forty-nine male turkeys were rank ordered by weight and assigned to 7 treatment groups ([…]) of equal mean weights. Within treatment groups, two birds were individually caged (layer cages measuring 0.31 W×0.46 L×0.53 H meters/cage) side by side on one of three tiers (5 cages/tier and 3 tiers/rack). […] Individual treatment units (or bird sets) were randomized (planned) into cages among tiers and racks to eliminate any rack (5) or tier (3 vertical) effects within the room.
Group 1 control males were implanted with a 50-mg compressed (methylcellulose/lactose) placebo pellet. The remaining 6 treatment groups were as follows: Group 2, 50-mg testosterone pellet; Group 3, 50-mg 5-alpha-DHT pellet; Group 4, 50-mg 19-nortestosterone pellet; Group 5, 5.0-cm testosterone Silastic polysiloxane capsule; Group 6, 5-cm 5-alpha-DHT Silastic polysiloxane capsule and Group 7, 5.0-cm 19-nortestosterone Silastic polysiloxane capsule. Excluding feed efficiency, data means for all parameters were compared between treatments using individual birds as replicates (n=8). Data means for feed efficiency were compared between treatments using sets of birds as replicates (n=4).

C[C@]12CCC(=O)C[C@@H]1CC[C@@H]1[C@@H]2CC[C@]2(C)[C@@H](O)CC[C@@H]12 [5-alpha-DHT, 5-alpha-dihydrotestosterone]
Abdominal Adipose ([1]; 5-mg pellet): 21.4
Average Daily Gain ([1]; 5-mg pellet): 106 ± 2 g
Final 9-Week Body Weight ([1]; 5-mg pellet): 4073 ± 72 g
Final 9-Week Shank-Toe Length ([1]; 5-mg pellet): 18.6 ± 0.21 cm
Right Breast Muscle ([1]; 5-mg pellet): 415 ± 7 g
Feed/Gain Ratio ([1]; 5-mg pellet): 2.03 ± 0.03
Abdominal Adipose (%) ([1]; 5-mg pellet): 28%
Abdominal Adipose ([1]; 50-mg pellet): 20.2
Average Daily Gain ([1]; 50-mg pellet): 121 ± 3 g
Final 9-Week Body Weight ([1]; 50-mg pellet): 4365 ± 84 g
Final 9-Week Shank-Toe Length ([1]; 50-mg pellet): 18.79 ± 0.25 cm
Right Breast Muscle ([1]; 50-mg pellet): 487 ± 13 g
Feed/Gain Ratio ([1]; 50-mg pellet): 1.82 ± 0.03
Abdominal Adipose (%) ([1]; 50-mg pellet): 32%
Feed/Gain Ratio (%) ([1]; 50-mg pellet): 13.7%
Average Daily Gain (%) ([1]; 50-mg pellet): 17.5%
Final 9-Week Body Weight (%) ([1]; 50-mg pellet): 8.9%
Right Breast Muscle (%) ([1]; 50-mg pellet): 24.9%
Abdominal Adipose ([2]; 5-cm Silastic capsule): 12.2 ± 1.44
Average Daily Gain ([2]; 5-cm Silastic capsule): 113 ± 3 g
Final 10-Week Body Weight ([2]; 5-cm Silastic capsule): 4985 ± 60 g
Final 10-Week Shank-Toe Length ([2]; 5-cm Silastic capsule): 24.4 ± 0.15 cm
Right Breast Muscle ([2]; 5-cm Silastic capsule): 465 ± 17 g
Feed/Gain Ratio ([2]; 5-cm Silastic capsule): 2.30 ± 0.120
Right Breast Muscle (%) ([2]; 5-cm capsule): 8.4%
Feed Efficiency ([2]; 5-cm capsule): 9.4%
Abdominal Adipose ([2]; 50-mg pellet): 9.53 ± 1.12
Average Daily Gain ([2]; 50-mg pellet): 120 ± 3 g
Final 10-Week Body Weight ([2]; 50-mg pellet): 5202 ± 44 g
Final 10-Week Shank-Toe Length ([2]; 50-mg pellet): 24.3 ± 0.28 cm
Right Breast Muscle ([2]; 50-mg pellet): 460 ± 10 g
Feed/Gain Ratio ([2]; 50-mg pellet): 2.33 ± 0.079
Average Daily Gain (%) ([2]; 50-mg pellet): 10.1%
Final 10-Week Body Weight (%) ([2]; 50-mg pellet): 6.0%
Right Breast Muscle (%) ([2]; 50-mg pellet): 7.2%

C[C@]12CC[C@H]3[C@@H](CCC4=CC(=O)CC[C@@]43C)[C@@H]1CC[C@@H]2O [Testosterone, testosterone]
Abdominal Adipose ([1]; 5-mg pellet): 20.2
Average Daily Gain ([1]; 5-mg pellet): 108 ± 2 g
Final 9-Week Body Weight ([1]; 5-mg pellet): 4096 ± 65 g
Final 9-Week Shank-Toe Length ([1]; 5-mg pellet): 18.9 ± 0.16 cm
Right Breast Muscle ([1]; 5-mg pellet): 430 ± 15 g
Feed/Gain Ratio ([1]; 5-mg pellet): 2.01 ± 0.05
Abdominal Adipose (%) ([1]; 5-mg pellet): 32%
Abdominal Adipose ([1]; 50-mg pellet): 22.8
Average Daily Gain ([1]; 50-mg pellet): 119 ± 3 g
Final 9-Week Body Weight ([1]; 50-mg pellet): 4320 ± 69 g
Final 9-Week Shank-Toe Length ([1]; 50-mg pellet): 18.6 ± 0.13 cm
Right Breast Muscle ([1]; 50-mg pellet): 477 ± 17 g
Feed/Gain Ratio ([1]; 50-mg pellet): 1.91 ± 0.04
Abdominal Adipose (%) ([1]; 50-mg pellet): 23%
Feed/Gain Ratio (%) ([1]; 50-mg pellet): 9.5%
Average Daily Gain (%) ([1]; 50-mg pellet): 15.5%
Final 9-Week Body Weight (%) ([1]; 50-mg pellet): 7.7%
Right Breast Muscle (%) ([1]; 50-mg pellet): 22.3%
Abdominal Adipose ([2]; 5-cm Silastic capsule): 13.2 ± 3.57
Average Daily Gain ([2]; 5-cm Silastic capsule): 115 ± 2 g
Final 10-Week Body Weight ([2]; 5-cm Silastic capsule): 5055 ± 61 g
Final 10-Week Shank-Toe Length ([2]; 5-cm Silastic capsule): 24.2 ± 0.18 cm
Right Breast Muscle ([2]; 5-cm Silastic capsule): 457 ± 20 g
Feed/Gain Ratio ([2]; 5-cm Silastic capsule): 2.39 ± 0.088
Abdominal Adipose ([2]; 50-mg pellet): 11.61 ± 1.37
Average Daily Gain ([2]; 50-mg pellet): 116 ± 4 g
Final 10-Week Body Weight ([2]; 50-mg pellet): 5100 ± 82 g
Final 10-Week Shank-Toe Length ([2]; 50-mg pellet): 23.6 ± 0.19 cm
Right Breast Muscle ([2]; 50-mg pellet): 450 ± 10 g
Feed/Gain Ratio ([2]; 50-mg pellet): 2.37 ± 0.086

C[C@]12CC[C@H]3[C@@H](CCC4=CC(=O)CC[C@@H]43)[C@@H]1CC[C@@H]2O [19-Nortestosterone, 19-nortestosterone]
Abdominal Adipose ([1]; 5-mg pellet): 22.8
Average Daily Gain ([1]; 5-mg pellet): 108 ± 3 g
Final 9-Week Body Weight ([1]; 5-mg pellet): 4115 ± 122 g
Final 9-Week Shank-Toe Length ([1]; 5-mg pellet): 18.87 ± 0.25 cm
Right Breast Muscle ([1]; 5-mg pellet): 439 ± 15 g
Feed/Gain Ratio ([1]; 5-mg pellet): 1.92 ± 0.04
Abdominal Adipose (%) ([1]; 5-mg pellet): 23%
Feed/Gain Ratio (%) ([1]; 5-mg pellet): 9.0%
Right Breast Muscle (%) ([1]; 5-mg pellet): 12.6%
Abdominal Adipose ([1]; 50-mg pellet): 18.7
Average Daily Gain ([1]; 50-mg pellet): 127 ± 3 g
Final 9-Week Body Weight ([1]; 50-mg pellet): 4476 ± 94 g
Final 9-Week Shank-Toe Length ([1]; 50-mg pellet): 18.31 ± 0.24 cm
Right Breast Muscle ([1]; 50-mg pellet): 493 ± 17 g
Feed/Gain Ratio ([1]; 50-mg pellet): 1.76 ± 0.07
Abdominal Adipose (%) ([1]; 50-mg pellet): 37%
Feed/Gain Ratio (%) ([1]; 50-mg pellet): 16.6%
Average Daily Gain (%) ([1]; 50-mg pellet): 23.3%
Final 9-Week Body Weight (%) ([1]; 50-mg pellet): 11.6%
Right Breast Muscle (%) ([1]; 50-mg pellet): 26.4%
Abdominal Adipose ([2]; 5-cm Silastic capsule): 7.88 ± 2.10
Average Daily Gain ([2]; 5-cm Silastic capsule): 131 ± 3 g
Final 10-Week Body Weight ([2]; 5-cm Silastic capsule): 5410 ± 73 g
Final 10-Week Shank-Toe Length ([2]; 5-cm Silastic capsule): 23.5 ± 0.15 cm
Right Breast Muscle ([2]; 5-cm Silastic capsule): 513 ± 15 g
Feed/Gain Ratio ([2]; 5-cm Silastic capsule): 1.94 ± 0.041
Abdominal Adipose (%) ([2]; 5-cm capsule): 52.8%
Average Daily Gain (%) ([2]; 5-cm capsule): 20.2%
Final 10-Week Body Weight (%) ([2]; 5-cm capsule): 10.2%
Right Breast Muscle (%) ([2]; 5-cm capsule): 12.6%
Feed Efficiency ([2]; 5-cm capsule): 23.6%
Abdominal Adipose ([2]; 50-mg pellet): 6.74 ± 1.57
Average Daily Gain ([2]; 50-mg pellet): 132 ± 6 g
Final 10-Week Body Weight ([2]; 50-mg pellet): 5416 ± 136 g
Final 10-Week Shank-Toe Length ([2]; 50-mg pellet): 23.3 ± 0.22 cm
Right Breast Muscle ([2]; 50-mg pellet): 529 ± 22 g
Feed/Gain Ratio ([2]; 50-mg pellet): 1.99 ± 0.091
Abdominal Adipose (%) ([2]; 50-mg pellet): 59.6%
Average Daily Gain (%) ([2]; 50-mg pellet): 21.1%
Final 10-Week Body Weight (%) ([2]; 50-mg pellet): 10.3%
Right Breast Muscle (%) ([2]; 50-mg pellet): 23.3%
Feed Efficiency ([2]; 50-mg pellet): 21.6%
